According to US10494384B2, “Urea peptoid boric acid compound, pharmaceutical composition thereof, preparation method therefor, and uses thereof” (Peking University, priority 2015, dated 2019):
Like-named read-outs stand apart in the source and are kept apart here. Each block holds one molecule with its values, some of them ahead of it.

Legend:
[1] = test system: MGC803 stomach cancer cells; assay: anti-tumor activity in vitro (IC50), MTT; format: cell-based; settings: Homo sapiens, MGC-803, 72 h
Description: (§1) Cancer cells were cultured in vitro. When cell growth reached logarithmic phase, the cells were collected and centrifuged at 1000 rpm for 5 min, before the supernate was removed and the cells were suspended in a moderate amount of medium, and then the concentration of cell was adjusted to 3.5×10^4/mL. The cell suspension was added into a 96-well plate with 100 μL per well and cultured in a cell incubator (37° C., 5% CO2) for 24 h. Then test drugs of different end concentrations were added, and the negative control group was added DMSO (end concentration was 0.5%), while each group afforded three repetitive holes. After cultivation for another 72 h in the cell incubator, a solution containing 5 mg/ml MTT (20 μL) was added into each well and the 96-well plate was placed at 37° C. for 3 h. To each well was added 150 μL DMSO, after oscillation in a shaking table for 5 min, the optical density (OD) values at 492 nm/620 nm were measured. IC50 values were calculated by Prism Graphpad statistical software.

[2] = target: T1, 20S proteasome extracted from rat liver (CT-L) (Rattus norvegicus, UniProt P18421+P28075); assay: inhibition of 20S proteasome, CT-L activity (fluorescent peptide); format: biochemical; settings: rat liver 20S proteasome; for IC50: read-out: IC50 (μM) CT-L
T1 construct: 20S proteasome extracted from rat liver; from tissue; host or cells: rat liver
Description: (§2) 1 μg of 20S proteasome extracted from rat liver was incubated with a 100 μL solution containing various concentrations of the present compounds, 50 μM fluorescent peptides and 20 mM Tris-HCl at 37° C. for 1 h, respectively. […] 0.1% DMSO was used as a solvent control. Compared with the fluorescence of solvent control, an inhibition rate or IC50 value was calculated.

[3] = target: T2, 20S proteasome extracted from rat liver (PGPH) (Rattus norvegicus, UniProt P28073+Q9JHW0); assay: inhibition of 20S proteasome, PGPH activity (fluorescent peptide); format: biochemical; settings: rat liver 20S proteasome; for IC50: read-out: IC50 (μM) PGPH
T2 construct: 20S proteasome extracted from rat liver; from tissue; host or cells: rat liver
Description: as §2

[4] = target: T3, 20S proteasome extracted from rat liver (T-L) (Rattus norvegicus, UniProt P40112+Q9JHW0); assay: inhibition of 20S proteasome, T-L activity (fluorescent peptide); format: biochemical; settings: rat liver 20S proteasome; for IC50: read-out: IC50 (μM) T-L
T3 construct: 20S proteasome extracted from rat liver; from tissue; host or cells: rat liver
Description: as §2

HepG2 liver cancer cells = assay: anti-tumor activity in vitro (IC50), MTT; format: cell-based; settings: Homo sapiens, liver cancer cells, 72 h, read-out: IC50 (μM) HepG2
Description: as §1

[5] = test system: Hela, human cervical carcinoma; assay: preliminary anti-tumor screening in vitro, MTT method; format: cell-based; settings: read-out: inhibition rates (%) Hela
Description: (§3) The test methods used in this test example are routine methods for anti-tumor activities test in pharmaceutical area, for example, referring to the following reference: (J. Immunol Method, 1983, 65, 55).
(§4) Test models: A: MTT method (Hela, human cervical carcinoma); B: SRB method (BGC-823, […]); C: SRB method (MCF-7, breast cancer); D: SRB method (A549, human lung cancer); E: SRB method (PC3M1E8, prostate cancer).
(§5) Inhibition rates of the compounds were measured under concentrations of 0.1 μM, 1 μM or 10 μM.

A549, human lung cancer = assay: preliminary anti-tumor screening in vitro, SRB method; format: cell-based; settings: read-out: inhibition rates (%) A549
Description: as §3, §4, §5

BGC-823, liver cancer = assay: as above; format: cell-based; settings: Homo sapiens, read-out: inhibition rates (%) BGC-823
Description: as §3, §4, §5

MCF-7, breast cancer = assay: as above; format: cell-based; settings: Homo sapiens, read-out: inhibition rates (%) MCF-7
Description: as §3, §4, §5

[6] = MGC80-3, MTT, value ± spread, read-out: IC50 (μM), growth of stomach cancer cells (MGC80-3)
[7] = stomach cancer cells, MTT, read-out: IC50 (μM) MGC803

IC50 [1, 6]: 0.006 µM
Structure (SMILES): CC(C)C[C@H](NC(=O)[C@H](Cc1ccccc1)NC(=O)N1CCc2ccsc2C1)B(O)O [Example 55, N-L-phenylalanyl-L-leucine borate-N′-4,5,6,7-tetrahydrothieno[2,3-c]pyridine-urea]

IC50 [1, 6]: 0.134 ± 0.003 µM
Structure (SMILES): CC(C)C[C@H](NC(=O)[C@H](C)NC(=O)N1CCc2ccccc2C1)B(O)O [Example 41, N-L-alanyl-L-leucine borate-N′-1,2,3,4-tetrahydroisoquinoline-urea]

IC50 [1, 6]: 0.143 ± 0.004 µM
Structure (SMILES): CC(C)C[C@H](NC(=O)[C@@H](NC(=O)N1CCc2ccccc2C1)C(C)C)B(O)O [Example 42, N-L-valyl-L-leucine borate-N′-1,2,3,4-tetrahydroisoquinoline-urea]

IC50 [2]: 0.0003 µM | IC50 [3]: 0.24 µM | IC50 [4]: 1.15 µM | IC50 (HepG2 liver cancer cells): 0.0372 µM | IC50 [1, 7]: 0.00587 µM
Structure (SMILES): CC(C)C[C@H](NC(=O)[C@H](Cc1ccccc1)NC(=O)NCc1ccc(-c2ccccc2)cc1)B(O)O [Example 32, N-L-phenylalanyl-L-leucine borate-N′-p-phenyl-benzylamine-urea]

inhibition at 0.2 µM ([2]; 0.2 μM, 37° C., 1 h, read-out: inhibition rates (%) CT-L): 82.1% | inhibition at 2 µM ([2]; 2 μM, 37° C., 1 h, read-out: inhibition rates (%) CT-L): 96.7% | inhibition at 20 µM ([2]; 20 μM, 37° C., 1 h, read-out: inhibition rates (%) CT-L): 98.3% | inhibition at 0.2 µM ([3]; 0.2 μM, 37° C., 1 h, read-out: inhibition rates (%) PGPH): 9.81% | inhibition at 2 µM ([3]; 2 μM, 37° C., 1 h, read-out: inhibition rates (%) PGPH): 68.8% | inhibition at 20 µM ([3]; 20 μM, 37° C., 1 h, read-out: inhibition rates (%) PGPH): 97.1% | inhibition at 0.2 µM ([4]; 0.2 μM, 37° C., 1 h, read-out: inhibition rates (%) T-L): 4.99% | inhibition at 2 µM ([4]; 2 μM, 37° C., 1 h, read-out: inhibition rates (%) T-L): 56.9% | inhibition at 20 µM ([4]; 20 μM, 37° C., 1 h, read-out: inhibition rates (%) T-L): 91% | IC50 (HepG2 liver cancer cells): 0.0528 µM | IC50 [1, 7]: 0.0106 µM
Structure (SMILES): COc1ccc(OC)c(CNC(=O)N[C@@H](Cc2ccccc2)C(=O)N[C@@H](CC(C)C)B(O)O)c1 [Example 18, N-L-phenylalanyl-L-leucine borate-N′-(2,5-dimethoxy-benzylamine)-urea]
inhibition at 0.1 µM ([5]; 0.1 μM): 37.8% | inhibition at 1 µM ([5]; 1 μM): 39.6% | inhibition at 10 µM ([5]; 10 μM): 46.5% | inhibition at 0.1 µM (A549, human lung cancer; 0.1 μM): 44.3% | inhibition at 1 µM (A549, human lung cancer; 1 μM): 63.5% | inhibition at 10 µM (A549, human lung cancer; 10 μM): 66% | inhibition at 0.1 µM (BGC-823, liver cancer; 0.1 μM): 41.4% | inhibition at 1 µM (BGC-823, liver cancer; 1 μM): 46.6% | inhibition at 10 µM (BGC-823, liver cancer; 10 μM): 50% | inhibition at 0.1 µM (MCF-7, breast cancer; MCF7, 0.1 μM): 25.8% | inhibition at 1 µM (MCF-7, breast cancer; MCF7, 1 μM): 37.5% | inhibition at 10 µM (MCF-7, breast cancer; MCF7, 10 μM): 47.8%

IC50 [1, 6]: 2.24 ± 0.503 µM
Structure (SMILES): COc1cccc2c1CN(C(=O)N[C@@H](Cc1ccccc1)C(=O)N[C@@H](CC(C)C)B(O)O)CC2 [Example 53, N-L-phenylalanyl-L-leucine borate-N′-8-methoxy-1,2,3,4-tetrahydroisoquinoline-urea]

IC50 [1, 6]: 0.0172 ± 0.002 µM
Structure (SMILES): COc1cc2c(cc1OC)CN(C(=O)N[C@@H](Cc1ccccc1)C(=O)N[C@@H](CC(C)C)B(O)O)CC2 [Example 50, N-L-phenylalanyl-L-leucine borate-N′-6,7-dimethoxy-1,2,3,4-tetrahydroisoquinoline-urea]

IC50 [1, 6]: 0.0244 ± 0.005 µM
Structure (SMILES): CC(C)C[C@H](NC(=O)[C@H](CCc1ccccc1)NC(=O)N1CCc2ccccc2C1)B(O)O [Example 47, N-L-homophenylalanyl-L-leucine borate-N′-1,2,3,4-tetrahydroisoquinoline-urea]

IC50 [2]: 0.012 µM | IC50 [3]: 0.12 µM | IC50 [4]: 0.15 µM | IC50 (HepG2 liver cancer cells): 0.0531 µM | IC50 [1, 7]: 0.00706 µM
Structure (SMILES): CC(C)C[C@H](NC(=O)[C@H](Cc1ccccc1)NC(=O)NCc1cccc2ccccc12)B(O)O [Example 34, N-L-phenylalanyl-L-leucine borate-N′-naphth-1-ylmethylamine-urea]

IC50 [1, 6]: 0.0046 µM
Structure (SMILES): CC(C)C[C@H](NC(=O)[C@H](Cc1ccccc1)NC(=O)N1CCc2ccc([N+](=O)[O-])cc2C1)B(O)O [Example 46, N-L-phenylalanyl-L-leucine borate-N′-7-nitro-1,2,3,4-tetrahydroisoquinoline-urea]

IC50 [1, 6]: > 100 µM
Structure (SMILES): COc1ccc2c(c1)CN(C(=O)N[C@@H](Cc1ccccc1)C(=O)N[C@@H](CC(C)C)B(O)O)CC2 [Example 51, N-L-phenylalanyl-L-leucine borate-N′-7-methoxy-1,2,3,4-tetrahydroisoquinoline-urea]

IC50 [1, 6]: 0.139 ± 0.004 µM
Structure (SMILES): CC[C@H](C)[C@H](NC(=O)N1CCc2ccccc2C1)C(=O)N[C@@H](CC(C)C)B(O)O [Example 44, N-L-isoleucyl-L-leucine borate-N′-1,2,3,4-tetrahydroisoquinoline-urea]

IC50 [1, 6]: 0.0401 ± 0.005 µM
Structure (SMILES): CC(C)C[C@H](NC(=O)[C@H](CCC(N)=O)NC(=O)N1CCc2ccccc2C1)B(O)O [Example 49]

IC50 [1, 6]: 0.361 ± 0.088 µM
Structure (SMILES): COc1cccc2c1CCN(C(=O)N[C@@H](Cc1ccccc1)C(=O)N[C@@H](CC(C)C)B(O)O)C2 [Example 54, N-L-phenylalanyl-L-leucine borate-N′-5-methoxy-1,2,3,4-tetrahydroisoquinoline-urea]

IC50 [1, 6]: 0.137 ± 0.011 µM
Structure (SMILES): CC(C)C[C@H](NC(=O)[C@H](Cc1ccccc1)NC(=O)N1CCCc2ccccc21)B(O)O [Example 38, N-L-phenylalanyl-L-leucine borate-N′-1,2,3,4-tetrahydroquinoline-urea]

IC50 [1, 6]: 0.139 ± 0.004 µM
Structure (SMILES): CC(C)C[C@H](NC(=O)[C@H](Cc1ccccc1)NC(=O)N1CCc2ccccc2C1C)B(O)O (stereo partly drawn) [Example 39, N-L-phenylalanyl-L-leucine borate-N′-1-methyl-1,2,3,4-tetrahydroisoquinoline-urea]

IC50 [1, 6]: 0.111 ± 0.009 µM
Structure (SMILES): CC(C)C[C@H](NC(=O)[C@H](Cc1ccc([N+](=O)[O-])cc1)NC(=O)N1CCc2ccccc2C1)B(O)O [Example 48, N-L-4-nitro-phenylalanyl-L-leucine borate-N′-1,2,3,4-tetrahydroisoquinoline-urea]

IC50 [1, 6]: 0.163 ± 0.008 µM
Structure (SMILES): CC(C)C[C@H](NC(=O)[C@H](CC(C)C)NC(=O)N1CCc2ccccc2C1)B(O)O [Example 40, N-L-leucyl-L-leucine borate-N′-1,2,3,4-tetrahydroisoquinoline-urea]

IC50 [1, 6]: 0.0173 ± 0.003 µM
Structure (SMILES): CC(C)C[C@H](NC(=O)[C@H](Cc1ccc2ccccc2c1)NC(=O)N1CCc2ccccc2C1)B(O)O [Example 43, N-L-naphthylalanyl-L-leucine borate-N′-1,2,3,4-tetrahydroisoquinoline-urea]

IC50 [1, 6]: 0.85 ± 0.106 µM
Structure (SMILES): COc1ccc2c(c1)CCN(C(=O)N[C@@H](Cc1ccccc1)C(=O)N[C@@H](CC(C)C)B(O)O)C2 [Example 52, N-L-phenylalanyl-L-leucine borate-N′-6-methoxy-1,2,3,4-tetrahydroisoquinoline-urea]

IC50 [1, 6]: 0.0092 ± 0.001 µM
Structure (SMILES): CC(C)C[C@H](NC(=O)[C@H](Cc1c[nH]c2ccccc12)NC(=O)N1CCc2ccccc2C1)B(O)O [Example 45, N-L-tryptophanyl-L-leucine borate-N′-1,2,3,4-tetrahydroisoquinoline-urea]
